# Patent publication US9848603B2, “Methods for protecting plants with antifungal compositions” (priority 2008, dated 2017)
# Assays:
# Leptosphaeria maculans [1] = type: cell-based; settings: read-out: NaD1 IC50
# [2] = tested on: Fusarium oxysporum f. sp. vasinfectum (Fov); type: cell-based; settings: read-out: NaD1 IC50
# Escherichia coli = assay: Effect of NaD1 on bacterial growth; type: cell-based
# Fov [3] = assay: Effect of metal ions (CaCl2, MgCl2) on NaD1 activity against Fov; settings: NaD1 10 μM; growth of Fov
# Description: The activity of NaD1 against Fov was examined as described with varying concentrations of CaCl2 (0.1, 0.2, 0.5, 1.0 and 2.0 μM) or MgCl2 (1.0, 2.0, 10, 20 and 50 μM) present in the medium to determine the effects of divalent cations on NaD1 activity.
# Fusarium graminearum [4] = type: cell-based; settings: defensin in combination with the triazole tebuconazole
# F. graminearum hyphae [5] = type: cell-based, Fusarium graminearum
# [6] = tested on: Fusarium oxysporum f. sp. vasinfectum (Fov); assay: Glasshouse bioassay of transgenic and non-transgenic cotton seed coated with fungicide in Fov infected soil; settings: transgenic Coker expressing NaD1, seeds not coated with fungicide
# Description: Cultures of Fov (isolate #24500 VCG 01111) were prepared in millet and incorporated into a soil mix. The infected soil was used to grow line 35.125.1 and non-transgenic Coker 315. The culture of Fov was prepared in ½ strength PDB (12 g/L potato dextrose) and grown for approximately one week at 26° C. The culture (5 to 10 mL) was used to infect autoclaved hulled millet which was then grown for 2 to 3 weeks at room temperature. The infected millet was incorporated into a pasteurized peat based soil mix at 1% (v/v), by vigorous mixing in a 200 L compost tumbler. The infected soil was transferred to plastic containers (10 L of mix per 13.5 L container).
# The cotton seed was either non-coated or coated with the fungicide HEC5725 (active ingredient Fluoxastrobin, Bayer Crop Science, batch number 06529/0022) at a rate of 1 mL/kg of seed and allowed to dry prior to sowing. Water was added to facilitate even coating of the seed (62.5 mL/kg of seed). Untreated samples were treated with water only.
# Forty eight seeds were planted for each test (transgenic and non-transgenic, coated and non-coated seed). Seed was sown directly into the containers, 12 seed per box in a 3×4 array. […]
# Plants were grown for 7 weeks. Foliar symptom development was measured throughout the trial and disease score was determined by destructive sampling at the end of the trial. […]
# Saccharomyces cerevisiae = assay: Effect of NaD1 on growth of yeast strains
# Description: (§1) The effect of NaD1 on the growth of the yeast strains Candida albicans, Pichia pastoris and Saccharomyces cerevisiae (from Department of Microbiology, La Trobe University) was assayed in microtitre plates. Cells were grown in YPD for 48 h, then counted using a haemocytometer and diluted to a concentration of 5×10^4 cells/mL in fresh YPD. Cell suspension (100 μL) containing 0-10 μM NaD1 was added to the wells of a 96-well microtitre plate and incubated for 48 h at 30° C. Growth was determined by measuring the optical density at 595 nm using a microtitre plate reader. Each test was performed in quadruplicate.
# Fov hyphae [7] = assay: Immunogold electron microscopy of NaD1-treated hyphae; type: cell-based, Fusarium oxysporum f. sp. vasinfectum; settings: NaD1 (10 μM) for 2 h
# Aspergillus nidulans = type: cell-based; settings: read-out: NaD1 IC50
# Thielaviopsis basicola = type: cell-based; settings: read-out: NaD1 IC50
# filamentous fungi = type: cell-based; settings: Fov, F. graminearum, F. oxysporum f. sp. dianthi and lycopersici, F. solani, F. pseudograminearum, C. heterostrophus, A. brassicola, G. graminis var. tritici, T. basicola, V. dahliae, A. nidulans, S. sclerotiorum, B. cinerea, L. maculans
# [8] = tested on: Fusarium oxysporum f. sp. vasinfectum (Fov); assay: Growth cabinet bioassay of transgenic and non-transgenic cotton seed coated with fungicide in Fov infected soil; settings: transgenic Coker expressing NaD1, seeds not coated with fungicide
# Description: The assay was conducted as described for the glasshouse assay except for the following modifications.
# Thirty seeds were planted for each test (transgenic and non-transgenic, coated and non-coated seed). Seed was sown directly into the containers, 24 seed per box in a 4×6 array. Six seed for each test were sown randomly in each box. Seeds were germinated for 7 days, conditions were 16 hours light at 30° C. and 8 hours dark at 15° C., with a ramp of 2° C. per hour. For the remainder of the experiment the conditions were 16 hours light at 25° C. and 8 hours dark at 10° C. with a ramp of 2° C. per hour.
# Plants were grown for 4 weeks. Foliar symptom development was measured throughout the trial and disease score was determined by destructive sampling at the end of the trial. The following rating was used to determine the disease score: 0=no symptoms, 1=vascular browning to base of stem, 2=vascular browning to cotyledons, 3=vascular browning past cotyledons, 4=vascular browning to true leaves, 5=dead. The average disease score was an average for all seeds that germinated.
# Fov [9] = settings: transgenic cotton variety expressing NaD1, field trials; cited from earlier work
# F. graminearum hyphae [10] = type: cell-based, Fusarium graminearum; settings: various concentrations of NaD1
# Staphylococcus aureus = assay: Effect of NaD1 on bacterial growth; type: cell-based
# Pseudomonas aeruginosa = assay: Effect of NaD1 on bacterial growth; type: cell-based
# Fov hyphae [11] = assay: Membrane permeabilization of Fov hyphae, SYTOX green uptake; type: cell-based, Fusarium oxysporum f. sp. vasinfectum
# Fusarium graminearum [12] = assay: microbe, parasite or virus in culture; type: cell-based
# [13] = tested on: Fusarium oxysporum f. sp. vasinfectum (Fov); assay: Field trial of transgenic and non-transgenic cotton seed coated with fungicide in Fov infected soil; settings: NaD1 expressed in transgenic line 35.125.1, coated or uncoated
# Description: Seed of the two lines were either not coated with fungicide or were coated with the fungicide HEC5725 (active ingredient fluoxastrobin, Bayer CropScience, batch number 06529/0022) at a rate of 1 mL/kg of seed, or with the commercial seed coat fungicides Dynasty® (Registered Trademark) (active ingredients 75 g/L azoxystrobin, 37.5 g/L metalaxyl-m, 12.5 g/L fludioxonil, Syngenta) at a rate of 2 mL/kg of seed, Jockey® (Registered Trademark) (active ingredient 167 g/L fluquinconazole, Bayer CropScience) at a rate of 20 mL/kg of seed or Redigo® (Registered Trademark) (active ingredient 100 g/L prothioconazole, Bayer CropScience) at a rate of 1 mL/kg of seed. All seed (coated and uncoated with fungicide) was coated with the insecticide Gaucho® (Registered Trademark) (600 g/L imidacloprid, Bayer CropScience) to control early season thrips and aphids. Seed was prepared to ensure even coating of fungicide and insecticide and allowed to dry prior to sowing.
# Plants were grown at a farm in the Darling Downs region of Queensland, Australia. Seed was mechanically planted into soil known to be infected with Fusarium oxysporum f.sp. vasinfectum. […]
# Emergence and plant survival were recorded. […] Statistical significance of the interaction of plant line and mortality was calculated using a Pearson's chi-square test.
# Fov hyphae [14] = assay: Isolation of NaD1 from treated hyphae (SDS-PAGE and immunoblotting of cytoplasmic contents)
# Description: Fov hyphae were grown as described above prior to the addition of NaD1 (10 μM final concentration) to 1 mL of the culture. Samples (100 μL) were collected after 0, 5, 10, 30, 60, 90 and 120 min. Hyphae were collected by centrifugation (10 min, 10,000×g) and the supernatant was stored at −20° C. for analysis. Hyphae were washed (2×10 min) with KCl (0.6 M) to remove any ionically bound protein before they were resuspended in 50 mM CAPS buffer (pH 10.0) containing 10 mM DTT for 20 min. Hyphae were collected by centrifugation and the supernatant, containing cell wall proteins, was collected for analysis. The pellet (containing cells) was resuspended in water and the cells were lysed using glass beads (Sigma, 60 mg) and vortexing (3×10 min). Cellular debris was removed by centrifugation (16,000×g, 10 min) and the supernatant collected for analysis. All samples were then analyzed by SDS-PAGE and immunoblotting.
# Verticillium dahliae [15] = assay: Field trial of transgenic and non-transgenic cotton seed coated with fungicide in Verticillium dahliae infected soil; type: in vivo
# [16] = tested on: Spodoptera frugiperda (Sf21) insect cells; assay: Effect of NaD1 on growth of insect cells
# Description: The effect of NaD1 on the growth of Insect cells was determined as follows. Spodoptera frugiperda (Sf21) insect cells were grown to ˜90% confluency in Sf-900 II serum free media (Gibco™, 20 mL) in a 75 cm^2 tissue culture flask with a vented cap (Nunc). Cells were then split one in two with fresh media. Cell suspension was added to 96-well flat-bottomed microtitre plate wells (190 μL/well) and the cells were allowed to settle for 30 min prior to addition of NaD1 (10 μL) to give a final concentration of 0-10 μM. Growth was monitored until the cells reached confluency (˜48 h).
# Pichia pastoris = assay: Effect of NaD1 on growth of yeast strains
# Description: as §1
# Leptosphaeria maculans [17] = assay: Fungal glasshouse bioassay of transgenic canola seedlings expressing NaD1; type: in vivo, canola (Brassica napus); settings: NaD1 expressed in transgenic canola line CAT13.26
# Fov hyphae [18] = assay: Detection of reactive oxygen species (DHR123 oxidation) in response to NaD1; settings: NaD1 0.1, 2 and 10 μM or 10 μM NaD1R&A
# Candida albicans = assay: Effect of NaD1 on growth of yeast strains
# Description: as §1
# Verticillium dahliae [19] = type: cell-based; settings: read-out: NaD1 IC50
# Bacillus cereus = assay: Effect of NaD1 on bacterial growth; type: cell-based
# Fov hyphae [20] = assay: Uptake of FITC-labeled dextrans into NaD1-treated hyphae
# Description: The uptake of FITC-labeled dextran with NaD1 treatment of fungal hyphae was also studied. Fov hyphae were grown as described above and incubated with NaD1 (final concentration 0.1, 2, 10 or 50 μM) or an equivalent volume of water for 2 h at RT with gentle agitation. Hyphae were washed twice for 10 min with half-strength PDB to remove excess NaD1 before FITC dextrans of either 4 kDa (FD-4, Sigma-Aldrich) or 10 kDa (FD-10, Sigma-Aldrich) were added to a final concentration of 1 mg/mL. Hyphae were incubated for a further 30 min at RT and then washed twice with half strength PDB to remove excess dextrans. Fluorescence microscopy was used to visualize hyphae as described for SYTOX® green. A second assay was performed under the same conditions except the dextrans were added at the same time as NaD1.
# [21] = read-out: NaD1 IC50, growth inhibition
# Description for HeLa cells: To examine the effect of NaD1 on mammalian cell growth, HeLa cells were seeded at 50% in Dulbecco's modified Eagle's medium (Gibco™-BRL) containing 10% (v/v) fetal calf serum with or without NaD1 (10 μM) at 37° C. under an atmosphere of 5% CO2 and 95% air in a 60 mm Petri dish. Cells were incubated for 48 h at 37° C. before they were stained with trypan blue to check viability and counted using a haemocytometer.
substance,measurement,setting,value
NaD1: plant defensin isolated from floral tissue of Nicotiana alata; also expressed in transgenic cotton line 35.125.1 and canola line CAT13.26 (RECKTESNTFPGICITKPPCRKACISEKFTDGHCSKILRRCLCTKPC; listed as Nicotiana alata),IC50,Leptosphaeria maculans [1],800 nM
same,IC50,[2],1000 nM
same,effect on growth,Escherichia coli; Gram-negative bacterial strain tested: Escherichia coli,no effect
same,IC50,"Escherichia coli; growth inhibition, Escherichia coli",> 10000 nM
same,CaCl2 concentration for complete inactivation of NaD1,Fov [3],< 2 mM
same,MgCl2 concentration for complete inactivation of NaD1,Fov [3],50 mM
same,antagonism of Ca2+ relative to Mg2+,Fov [3],greater than 20 times
same,synergy with tebuconazole (Io higher than Ee),Fusarium graminearum [4],Synergy
same,permeabilization activity among the plant defensins (ATP release),F. graminearum hyphae [5]; 1 μM defensin,highest permeabilization activity
same,ATP release,F. graminearum hyphae [5]; 0.125 to 10 μM NaD1,concentration dependant release of ATP
same,mortality,[6],approximately half the mortality of the non-transgenic plants
same,effect on growth,Saccharomyces cerevisiae,no effect
same,IC50,Saccharomyces cerevisiae; [21],> 10000 nM
same,anti-NaD1 immunogold labeling of cytoplasm of granulated hyphae,Fov hyphae [7],heavily labeled
same,IC50,Aspergillus nidulans,800 nM
same,IC50,Thielaviopsis basicola,800 nM
same,toxicity to cells,HeLa cells; human HeLa cells,not toxic
same,IC50,"HeLa cells; read-out: NaD1 IC50, growth inhibition, HeLa cells",> 10000 nM
same,growth of filamentous fungi,filamentous fungi,inhibit growth
same,mortality,[8],7%
same,protection from pathological effects of Fov infection versus untransformed parent variety,Fov [9],significantly protected
same,SYTOX green uptake,F. graminearum hyphae [10],increases with increasing concentrations of NaD1
same,effect on growth,Staphylococcus aureus; Gram-positive bacterial strain tested: Staphylococcus aureus,no effect
same,IC50,"Staphylococcus aureus; growth inhibition, Staphylococcus aureus",> 10000 nM
same,effect on growth,Pseudomonas aeruginosa; Gram-negative bacterial strain tested: Pseudomonas aeruginosa,no effect
same,IC50,"Pseudomonas aeruginosa; growth inhibition, Pseudomonas aeruginosa",> 10000 nM
same,permeabilization of hyphae (SYTOX green),"Fov hyphae [11]; 0.1, 2 or 10 μM NaD1 or 10 μM NaD1R&A",permeabilized hyphae
same,NaD1 concentration up to which Vmax (maximum rate of fluorescence increase) rose linearly; saturable above,Fov hyphae [11]; SYTOX green uptake,6.25 µM
same,time after which fluorescence began to plateau,Fov hyphae [11]; SYTOX green uptake over time,90 min
same,NaD1 concentration up to which rate of permeabilization increased progressively,Fov hyphae [11]; above this (up to 50 μM) very little difference in kinetics,3 µM
same,lag time before permeabilization,"Fov hyphae [11]; all NaD1 concentrations, SYTOX green uptake over time",around 20 min
same,SYTOX green uptake / permeabilization,Fov hyphae [11]; at 0° C. (relative to 4° C.),reduced even further
same,SYTOX green uptake / permeabilization,Fov hyphae [11]; at 4° C.,only a small degree of permeabilization
same,SYTOX green uptake / permeabilization,Fov hyphae [11]; at 10° C. (less than at 25° C.),substantial uptake of SYTOX® green
same,SYTOX green uptake,"Fov hyphae [11]; lowest concentration, 0.1 μM NaD1",small amount of SYTOX® green uptake
same,toxicity with Fusarium graminearum,Fusarium graminearum [12]; 0.24 μM NaD1 in the absence of fungicide,very low
same,inhibition of fungal growth,Fusarium graminearum [12]; 0.5 μM defensin (alone),about 13%
same,resistance to fungal infection relative to non-transgenic lines,[13],more resistant to fungal infection than the non-transgenic lines
same,time up to which amount of NaD1 in cytoplasm increased,Fov hyphae [14]; decreased slightly afterwards,60 min
same,time at which NaD1 uptake into cytoplasm occurred,Fov hyphae [14]; immunoblotting of cytoplasmic contents,20 min
same,yield versus untransformed Coker control,"Verticillium dahliae [15]; transgenic line 35.125.1, seed coat not used",not significantly different
same,uninfected plants at the end of the trial,"Verticillium dahliae [15]; transgenic line expressing NaD1, non-coated seeds",3.6%
same,toxicity to cells,[16]; Spodoptera frugiperda Sf-21 insect cells,not toxic
same,IC50,"[16]; read-out: NaD1 IC50, growth inhibition, Spodoptera frugiperda (Sf21)",> 10000 nM
same,effect on growth,Pichia pastoris,no effect
same,IC50,Pichia pastoris; [21],> 10000 nM
same,average lesion size versus non-transgenic plants,"Leptosphaeria maculans [17]; 10, 14 and 17 days after inoculation",significantly smaller
same,disease scores versus non-transgenic RI64,"Leptosphaeria maculans [17]; Days 10, 14 and 17",significantly lower disease scores
same,ROS production (DHR123 oxidation fluorescence),Fov hyphae [18],concentration-dependent increase in fluorescence
same,effect on growth,Candida albicans,no effect
same,IC50,Candida albicans; [21],> 10000 nM
same,IC50,Verticillium dahliae [19],750 nM
same,effect on growth,Bacillus cereus; Gram-positive bacterial strain tested: Bacillus cereus,no effect
same,IC50,"Bacillus cereus; growth inhibition, Bacillus cereus",> 10000 nM
same,entry of 10 kDa FITC-dextran (23 Å) into NaD1-treated hyphae,Fov hyphae [20]; even at very high concentrations of NaD1,excluded
same,entry of 4 kDa FITC-dextran (14 Å) into NaD1-treated hyphae,Fov hyphae [20]; same NaD1 concentration that led to SYTOX green uptake,entered hyphae
